Results published in US11523997B2, “Method of providing celiprolol therapy to a patient” (Assistance Publique-Hôpitaux de Paris (AP-HP), priority 2017, dated 2022).

Experiments:
[1] = system: patients with a phenotype of vEDS or molecularly proven vEDS; conditions: final 200 mg twice a day (BID); 5-year follow-up; 18-month up-titration; cited from earlier work
[2] = system: patients with molecularly confirmed vascular EDS; assay: Cohort follow-up: incidence of acute arterial events and hospitalizations; assay type: in vivo, human
Method: (§1) All patients with clinically and molecularly diagnosed vEDS that were actively followed clinically in the French National Referral Centre for Rare Vascular Diseases (HEGP, AP-HP, Paris, France) between January 2000 and March 2017 were screened for participation. During the initial evaluation of the first affected family member seeking medical attention for symptoms related to vEDS (index case), familial medical history was recorded and investigation performed in the first-degree relatives whenever possible. A dedicated database for vEDS was created at our institution in 2011. All relevant clinical data of every vEDS patient followed by our centre was entered into this database retrospectively from the year 2000 until 2011, and prospectively thereafter until Mar. 15, 2017. The database contains all available medical history related to the pathology before the initial work-up and obtained during the follow-up either through systematic visits or those caused by a new clinical event. Thus, the occurrence of any acute arterial, gastrointestinal, pulmonary and other vEDS-related events was systematically recorded. In case of death during follow-up, the time and cause of death were entered into the database. This study was formally approved by the IDF ethics committee (IRB registration #00001072) and the database was held in compliance with French legislation on patient privacy.
(§2) All vEDS patients benefited from standardized whole body arterial monitoring by Doppler Ultrasound (DUS) and CT angiogram and/or MRA. Such investigations were performed at baseline (initial assessment at molecular diagnosis) and was repeated every 12 to 15 months in asymptomatic patients. For arterial events that occurred before molecular diagnosis, location of arterial segments was retrieved from hospitalization and imaging reports or examinations, when available. In case of an acute arterial event, symptomatic arterial beds/segments were monitored by any necessary diagnostic and therapeutic means (CT-angiogram, DUS, angiography in case of embolization). […] For optimized management of arterial, gastrointestinal, and pulmonary emergencies, patients were given direct access to the medical team of our centre.
In order to assess arterial morbidity over a long timeline in patients with different follow-up periods, an empirical arterial score was designed for each subject. […]
Quantitative data were expressed as number, median, first and third quartiles; qualitative data were expressed as number and percentage. […] Quantitative variables were compared with the Wilcoxon-Mann-Whitney or the Kruskal Wallis tests, as appropriate. […]

[3] = system: patients with molecularly confirmed vascular EDS; assay: Cohort follow-up: tolerance of celiprolol with 3-month up-titration; assay type: in vivo, human
Method: (§3) Since the publication of the BBest trial in 2011, all included patients followed by our centre and not already treated with celiprolol were offered to switch to celiprolol. Patients who were not part of the trial and who were diagnosed during or since the termination of the BBest trial were treated with celiprolol starting at molecular diagnosis. Initial dosing of celiprolol was 100 mg once daily and increased by 100 mg/day every month over a 3-month period to reach the dose of 400 mg/day (200 mg twice daily) (celiprolol hydrochloride). In case of signs of intolerance (fatigue, dizziness) during up-titration or follow-up, the dose of celiprolol was reduced by 100 mg/day until the highest tolerated dose was reached. Dose adjustments were made whenever necessary throughout the patient's follow-up if intolerance was suspected. In accordance with the treatment protocol of the BBEST trial, patients were up-titrated to a maximum dose of 200 mg twice daily.
Adherence to medication was verified by open interview of the patients at each follow-up visit. Low medication adherence was considered if patients admitted to not taking their medication regularly at any moment of their follow-up. Patients were considered intolerant to celiprolol in case of refusal to follow the prescription even at a minimum dose of 100 mg/day. Patients taking another beta-blocker were offered to switch to celiprolol but this change was not mandatory, especially if patients had been clinically silent until molecular diagnosis while under another betablocker. If an acute arterial event occurred, patients were once again offered to switch to celiprolol. To reach significant numbers to allow comparative analysis, intolerant patients, patients not taking celiprolol, patients taking another betablocker and non-adherent patients were merged into one group further referred to as “not treated”.

[4] = system: patients with molecularly confirmed vascular EDS; assay: Long-term cohort follow-up of vEDS patients treated with celiprolol: patient survival (Kaplan-Meier, Cox model); assay type: in vivo, human; parameters: Survival of patients at 1 year of follow-up / Survival of patients at 5 years of follow-up / Survival of patients at 10 years of follow-up / Overall patient survival (Kaplan-Meier) / Survival at end of follow-up in those treated with celiprolol / Survival according to type of variant: Group I / Survival according to type of variant: Group II / Survival according to type of variant: Group III: concentration or dose not given beside the values
Method: as §1, §2, §3
Adherence to medication was verified by open interview of the patients at each follow-up visit. Low medication adherence was considered if patients admitted to not taking their medication regularly at any moment of their follow-up. Patients were considered intolerant to celiprolol in case of refusal to follow the prescription even at a minimum dose of 100 mg/day. Patients taking another beta-blocker were offered to switch to celiprolol but this change was not mandatory, especially if patients had been clinically silent until molecular diagnosis while under another betablocker. If an acute arterial event occurred, patients were once again offered to switch to celiprolol. […]

[5] = whole cohort, 90.3% on celiprolol by end of study
[6] = Cox's model, stepwise method, n=132
[7] = multivariate Cox's model, n=132 (Groups I and II)

## CCN(CC)C(=O)Nc1ccc(OCC(O)CNC(C)(C)C)c(C(C)=O)c1 (stereo not shown) [celiprolol, N′-(3-Acetyl-4-(3-((1,1-dimethylethyl)amino)-2-hydroxypropoxy)phenyl)-N, N-diethylurea]
[1]
  reduction in morbidity and mortality: 35%
[2]; before vs after systematic introduction of celiprolol (2011)
  Odds ratio (OR), rate of hospitalizations for acute arterial event before and after 2011: 1.72
[2]; in vivo
  Effect of celiprolol on mean age of occurrence of first and second new arterial event: without identifiable effect
[2]; [5]
  Cumulative incidence of a first new arterial event during follow-up: 56.8%
  Cumulative incidence of a second new arterial event during follow-up: 29.8%
[3]; full dose, up-titration of about three months
  Celiprolol intolerance and side effects with about three-month up-titration: without significant increase
[3]; human, in vivo
  Patients requiring dose reduction due to fatigue and/or dizziness: 3.47%
[3]; n=2 of 144
  Patients who declared themselves intolerant to celiprolol or refused to take it in fear of intolerance: 1.4%
[4]; 400 mg/day better than a smaller dose
  Observed reduction in mortality: dose dependence: dose-dependent
[4]; [6]
  Hazard ratio, celiprolol treatment Full dose/No: 0.060
  Hazard ratio, celiprolol treatment Half dose/No: 0.305
  Hazard ratio, treatment duration ≥6 years/<6 years: 0.058
[4]; Group I (glycine missense), n=144 cohort
  Survival according to type of variant: Group I: 65.1%
[4]; Group II (splice-site variants, insertions/deletions, duplications)
  Survival according to type of variant: Group II: 89.6%
[4]; Group III (haploinsufficiency)
  Survival according to type of variant: Group III: 100%
[4]; Groups I and II (n=132), treated n=110
  Survival at end of follow-up in those treated with celiprolol: 80.7%
[4]; Groups I and II, 400 mg/day
  Survival at end of follow-up according to daily dose: celiprolol 400 mg/day: 85%
[4]; Groups I and II, 100-300 mg/day
  Survival at end of follow-up according to daily dose: celiprolol 100-300 mg/day: 62.8%
[4]; [7]
  Hazard ratio, celiprolol treatment Full dose/No: 0.048
  Hazard ratio, celiprolol treatment Half dose/No: 0.303
  Hazard ratio, treatment duration ≥6 years/<6 years: 0.058
[4]; n=144, 1 year
  Survival of patients at 1 year of follow-up: 98.6%
[4]; n=144, 5 years
  Survival of patients at 5 years of follow-up: 92%
[4]; n=144, 10 years
  Survival of patients at 10 years of follow-up: 82.7%
[4]; n=144 vascular EDS patients, end of follow-up
  Overall patient survival (Kaplan-Meier): 71.6%
[4]; of N=17 deceased patients
  Deceased patients with celiprolol treatment (Yes), %: (52.9%)
[4]; of N=127 alive patients
  Alive patients with celiprolol treatment (Yes), %: (87.4%)
[4]; overall conclusion
  Survival of patients treated with celiprolol compared with others: better survival than others
